From ChEMBL document CHEMBL3507680, “University of Dundee, Gates Library screen for HepG2 cell viability”

test: Human HepG2 cell viability assay in 384 well format; assay type: toxicity, cell-based; design: dose 125 nL, time 70.5 hour; concentration not given beside the values; settings: HepG2 cells, read-out: Inhibition

SMILES | cytotoxicity at 70.5 h [%]
CCS(=O)(=O)c1ccc(N2CCC(NC(=O)C3CCCCC3)CC2)cc1 | 0.314
COc1cccc(S(=O)(=O)CCN2CCN(CCO)CC2)c1 | -2.82
Cc1ccc(C)c(NC(=O)Cc2c(C)nc3c(c2C)c(=O)[nH]n3C)c1 | 29.5
Cc1nn(CCO)c(C)c1CNC1CCc2c(F)cccc21 (configuration not stated) | 0.27
Cn1c(C(=O)N2CCC(C(N)=O)C2)c(Cl)c2ccccc21 (configuration not stated) | -5.34
Cc1nc2c(c(C)c1CC(=O)Nc1ccccc1F)c(=O)[nH]n2C | 4.76
CCS(=O)(=O)c1ccc(N2CCC(NC(=O)c3ccccn3)CC2)cc1 | 29
O=C(NCCc1ccccn1)NC1CCN(c2ccccc2)C1=O (configuration not stated) | 1.75
Cc1cc(C)n(CC2CCCN2CC(=O)Nc2nncs2)n1 (configuration not stated) | 30
Cc1cnn(CC2CCCCN2CC(=O)Nc2nncs2)c1 (configuration not stated) | -1.03
Cc1cc(C)n(CC2CCCCN2CC(=O)Nc2c(C)n[nH]c2C)n1 (configuration not stated) | 2.06
CC(C)(C)S(=O)(=O)CCNC(=O)NCCCc1cccc(F)c1 | 29
COCCS(=O)(=O)N1CCN(c2cccc(O)c2)CC1 | -2.61
COC1CCN(C(=O)C2CC(=O)N(c3ccccc3Br)C2)CC1 (configuration not stated) | -8.26
Cc1cc(C)n(CC2CCCCN2CC(=O)Nc2nccs2)n1 (configuration not stated) | -5.53
CC(C)COCCC(=O)Nc1ccc2oc(=O)n(CCN(C)C)c2c1 | 17.6
CN(C)CCn1c(=O)oc2ccc(NC(=O)CSc3ccccc3)cc21 | 6.5
O=C(CCNS(=O)(=O)c1ccc(F)c(F)c1)NCc1ccoc1 | -3.45
CCc1ccc(CNC(=O)NC2CCCc3c2cnn3CCO)s1 (configuration not stated) | -2.75
Cc1csc(CNC(=O)NC2CCCc3c2cnn3CCO)n1 (configuration not stated) | -9.89
O=C(NCC1CCCCC1)NC1CCCc2c1cnn2CCO (configuration not stated) | -7.67
CC(C)(O)CN1CCN(C(=O)c2cnn(-c3ccccc3F)c2)CC1 | -4.5
Cc1cc(C(=O)Nc2ccc3oc(=O)n(CCN(C)C)c3c2)c(C)o1 | 9.45
Cc1nn(C)c(C)c1C1COCCN1c1ncnc2c(C)cccc12 (configuration not stated) | -6.31

SMILES | cytotoxicity at 70.5 h [%]
CC1COCCN1c1ncnc2sccc12 (configuration not stated) | 6.87
CC(C)(C)OC(=O)NCCc1csc(N2CCCC2)n1 | -3.27
CCN(CC1CN(Cc2c(C)noc2C)CCO1)c1cccnn1 (configuration not stated) | 12.5
Cc1nn(C)c(C)c1C1CCCN1c1ncnc2sccc12 (configuration not stated) | 3.73
CCOc1cccc(C(=O)N(CCC#N)Cc2ccccn2)c1 | -0.366
CCN(CC1CN(Cc2ccn(C(C)C)n2)CCO1)c1cccnn1 (configuration not stated) | 1.41
Cc1ccc(N2CCCC(NCCCS(C)(=O)=O)C2)nn1 (configuration not stated) | -7.73
Clc1cnccc1N1CCCOCC1 | -5.38
CNC(=O)C1Cc2ccccc2CN1CCC#N (configuration not stated) | 4.8
COc1ccccc1N(C)S(=O)(=O)c1cc(C(=O)O)cs1 | -4.98
CC(C)N1CCC(NC(=O)NC2CCOc3ccc(Br)cc32)CC1 (configuration not stated) | 0.813
Cc1ncc2c(n1)CN(Cc1cccc3c1OCCO3)CC2 | -1.1
COCC(C)(CCO)NC(=O)Nc1cccc(F)c1C (configuration not stated) | 21.4
CC(=O)N1CCCC1c1cccc(C)c1C (configuration not stated) | -4.04
CN(CCCc1n[nH]c(N)c1C#N)C(=O)Nc1cc(Cl)cc(Cl)c1 | -11.9
NC(=O)C1CCCCN1C(=O)c1ccc(Br)s1 (configuration not stated) | -5.06
Cc1nn(C)c(C)c1CCC(=O)Nc1nnc(C2CC2)s1 | 22.3
CC(NC(=O)NCCNc1cccc(F)c1C#N)c1cccs1 (configuration not stated) | -4.54
CS(=O)(=O)NCC1CCCCN1C(=O)c1ccc(Br)s1 (configuration not stated) | -6.12
OC1CCN(c2ccc(CNc3nc4ccccc4o3)cc2F)CC1 | -9.97
CC(CNC(=O)C1(c2ccc(F)cc2)CC1)CN1CCCC1=O (configuration not stated) | 15.4
OC1CCN(c2ccc(CNc3nc4ccccc4s3)cc2F)CC1 | -9.14
NC(=O)NCC1CCCCN1C(=O)c1ccc(Br)s1 (configuration not stated) | -8.99
